The subject of this test is Methylophilus methylotrophus amidase (acylamide amidohydrolase EC No. 3-5-1-4). Nature of the test: Methylophilus methylotrophus amidase properties (Km). The settings on record: substrate of the amidase; conditions not given. Type of test: biochemical.

In the case of `CC(N)=O` [Acetamide], the Michaelis-Menten constant (Km) stood at 0.2 mM. With `C=CC(N)=O` [Acrylamide] the figure was 10 mM.

As usually defined, the Km is the concentration of substrate that gives half-maximal velocity.

Source of the values: patent US5188952A, “Process for the decomposition of acrylamide” (Imperial Chemical Industries PLC, priority 1986, dated 1993).
